This note sets out measurements from EP4122499A1, “FIBROBLAST ACTIVATION PROTEIN INHIBITORS AND USE THEREOF” (3B Pharmaceuticals GmbH, priority 2021, dated 2023).

The target of assay [1] is T1, FAP-expressing human WI-38 fibroblasts (Homo sapiens, UniProt Q12884).
T1 construct: FAP-expressing human WI-38 fibroblasts (ECACC 90020107) were cultured in EMEM; host or cells: WI-38 human fibroblasts
T1 sequence (Q12884 1-760): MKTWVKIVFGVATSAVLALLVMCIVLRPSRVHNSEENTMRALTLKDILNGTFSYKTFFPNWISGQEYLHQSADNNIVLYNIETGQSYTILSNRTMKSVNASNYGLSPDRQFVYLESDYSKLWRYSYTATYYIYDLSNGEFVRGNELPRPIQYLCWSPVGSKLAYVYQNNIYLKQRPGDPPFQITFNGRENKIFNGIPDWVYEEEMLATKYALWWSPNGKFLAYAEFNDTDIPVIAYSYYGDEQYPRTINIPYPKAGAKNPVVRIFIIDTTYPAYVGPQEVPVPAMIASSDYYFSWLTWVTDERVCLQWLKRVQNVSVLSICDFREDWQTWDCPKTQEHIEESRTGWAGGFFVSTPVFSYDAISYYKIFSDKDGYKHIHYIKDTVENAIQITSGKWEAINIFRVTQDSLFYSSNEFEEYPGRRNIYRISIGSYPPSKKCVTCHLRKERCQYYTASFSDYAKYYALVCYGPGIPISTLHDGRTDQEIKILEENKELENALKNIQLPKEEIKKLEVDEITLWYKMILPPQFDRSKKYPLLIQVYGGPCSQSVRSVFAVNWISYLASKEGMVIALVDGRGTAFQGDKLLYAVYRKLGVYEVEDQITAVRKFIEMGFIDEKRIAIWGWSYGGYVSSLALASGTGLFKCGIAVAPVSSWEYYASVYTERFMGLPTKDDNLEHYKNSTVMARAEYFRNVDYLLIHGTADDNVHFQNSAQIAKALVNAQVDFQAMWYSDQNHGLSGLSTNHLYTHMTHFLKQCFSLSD
The assay can be described thus: Competitive FACS binding assay (displacement of Cy5-labeled FAP inhibitor 3BP-2935). Conditions: 3 nM Cy5-labeled 3BP-2935, 4°C, 1 hour. For orientation: Flow cytometry measures light scatter and fluorescence of single cells or particles in a stream.

In assay [2] the target is T2, Human recombinant FAP (Homo sapiens, UniProt Q12884).
T2 sequence (Q12884 1-760): T1 sequence (Q12884 1-760)
The assay can be described thus: FRET-based FAP protease activity assay (human). The assay is classed as biochemical. More on the design: purchased R&D systems 3715-SE. Conditions: FRET-peptide substrate, 37°C. Here is the method:
In order to determine the inhibitory activity a FRET-based FAP protease activity assay was established.
25 µL of a 30 µM substrate solution, diluted in assay buffer, was added. […] Four parameter logistic (4PL) curve fitting and pIC50 calculations were performed using ActivityBase software (IDBS).

Assay [3] concerns the target T2, Human recombinant FAP. The assay can be described thus: Surface plasmon resonance assay (Biacore T200, single cycle kinetics). It is filed as binding. Conditions: SPR, 25°C; for pKD (Biacore): 1:1 Langmuir binding model; for HL [min] (Biacore): half-life. The procedure, abridged:
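Human recombinant FAP (20 µg/mL) was captured on anti-FAP antibody immobilized on a CM5 chip, and compounds were run in single-cycle kinetics at 25 °C in HBST with 0.1% DMSO, starting from 500 nM. Sensorgrams were corrected against a reference flow cell and for baseline drift. kon, koff, KD and t1/2 came from a 1:1 Langmuir fit, with pKD = −log KD.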

In the case of `O=C(O)CN1CCN(CC(=O)O)CCN(CC(=O)N2CCN(CCCOc3ccc4nccc(C(=O)NCC(=O)N5CCC[C@H]5C(=O)c5nc6ccccc6o5)c4c3)CC2)CCN(CC(=O)O)CC1` [drawing 357], the “pIC50 (FACS)” value in assay [1] stood at 8.6. At Human recombinant FAP [2], the “pIC50 (Activity)” value was found to be 8.9. At Human recombinant FAP [3], the “pKD (Biacore)” value was more than 11 and the “HL [min] (Biacore)” value is on record as more than 500 min.
Consider `O=C(O)CN1CCN(CC(=O)O)CCN(CC(=O)N2CCN(CCCOc3ccc4nccc(C(=O)NCC(=O)N5C[C@@H](F)C[C@H]5C(=O)c5nc6ccccc6o5)c4c3)CC2)CCN(CC(=O)O)CC1` [drawing 358], for which the “pIC50 (FACS)” value in assay [1] was determined as 8.6. In addition, the “pIC50 (Activity)” value on Human recombinant FAP [2] worked out at 9. Moreover, on Human recombinant FAP [3], the “pKD (Biacore)” value is on record as more than 11 and the “HL [min] (Biacore)” value is on record as more than 500 min.
`O=C(O)CN1CCN(CC(=O)O)CCN(CC(=O)N2CCN(CCNC(=O)c3ccc(-c4ccc5nccc(C(=O)NCC(=O)N6C[C@@H](F)C[C@H]6C(=O)c6nc7ccccc7o6)c5c4)cc3)CC2)CCN(CC(=O)O)CC1` [drawing 360]: the “pIC50 (FACS)” value in assay [1] stood at 7.6. For the same molecule, on Human recombinant FAP [2], the “pIC50 (Activity)” value is 8.5. At Human recombinant FAP [3], the “pKD (Biacore)” value came out at 9 and the “HL [min] (Biacore)” value was 4.8 min.
For the molecule `O=C(O)CN1CCN(CC(=O)O)CCN(CC(=O)N2CCN(CCNC(=O)c3ccc(-c4ccc5nccc(C(=O)NCC(=O)N6CCC[C@H]6C(=O)c6nc7ccccc7o6)c5c4)cn3)CC2)CCN(CC(=O)O)CC1` [drawing 361], in assay [1], the “pIC50 (FACS)” value is 7.6. Also, on Human recombinant FAP [2], the “pIC50 (Activity)” value was determined as 8.4. Moreover, on Human recombinant FAP [3], the “pKD (Biacore)” value is 8.7 and the “HL [min] (Biacore)” value was 4.1 min.
